The record followed here is paper PMC6437697 (Journal of Medicinal Chemistry, 2019).

Holding throughout (test): KINOMEscan
Common to all, as to assay type: binding
Conditions in all cases: read-out: % control activity remaining

The target in test [1] is T1, TRKC (Homo sapiens, UniProt Q16288).
T1 construct: purchased Eurofins DiscoverX KINOMEscan

Test [2] has as its target T2, CSNK2A2 (Homo sapiens, UniProt P19784).
T2 construct: purchased Eurofins DiscoverX KINOMEscan

For test [3], the target named is T3, KIT(V559D) (Homo sapiens, UniProt P10721, V559D).
T3 construct: purchased Eurofins DiscoverX KINOMEscan
T3 sequence (P10721 26-976 V559D): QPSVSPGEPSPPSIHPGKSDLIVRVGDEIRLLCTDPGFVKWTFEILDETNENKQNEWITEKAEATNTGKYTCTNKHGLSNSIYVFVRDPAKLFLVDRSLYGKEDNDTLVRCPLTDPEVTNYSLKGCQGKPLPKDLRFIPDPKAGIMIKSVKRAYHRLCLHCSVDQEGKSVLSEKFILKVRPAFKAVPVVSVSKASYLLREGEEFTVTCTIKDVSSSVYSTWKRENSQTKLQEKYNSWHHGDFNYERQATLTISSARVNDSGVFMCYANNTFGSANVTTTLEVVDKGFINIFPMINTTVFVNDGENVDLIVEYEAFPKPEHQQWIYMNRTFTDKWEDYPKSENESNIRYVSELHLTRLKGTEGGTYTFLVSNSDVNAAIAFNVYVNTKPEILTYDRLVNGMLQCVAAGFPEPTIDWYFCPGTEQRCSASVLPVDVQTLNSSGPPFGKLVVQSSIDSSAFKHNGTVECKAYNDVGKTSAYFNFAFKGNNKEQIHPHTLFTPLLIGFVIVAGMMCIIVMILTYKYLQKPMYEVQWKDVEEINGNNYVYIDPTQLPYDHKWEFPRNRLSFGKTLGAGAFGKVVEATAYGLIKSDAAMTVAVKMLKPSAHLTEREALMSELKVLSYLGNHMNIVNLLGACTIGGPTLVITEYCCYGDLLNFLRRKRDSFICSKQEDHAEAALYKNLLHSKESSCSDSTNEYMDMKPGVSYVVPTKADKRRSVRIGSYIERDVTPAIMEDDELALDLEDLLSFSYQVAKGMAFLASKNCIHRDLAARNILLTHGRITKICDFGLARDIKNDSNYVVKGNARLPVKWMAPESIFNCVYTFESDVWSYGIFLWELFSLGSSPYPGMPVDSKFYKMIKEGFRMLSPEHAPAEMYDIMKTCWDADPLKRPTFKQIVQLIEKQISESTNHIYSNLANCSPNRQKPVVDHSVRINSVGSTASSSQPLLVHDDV

The target of test [4] is T4, MET(M1250T) (Homo sapiens, UniProt P08581, M1250T).
T4 construct: purchased Eurofins DiscoverX KINOMEscan
T4 sequence (P08581 25-1390 M1250T): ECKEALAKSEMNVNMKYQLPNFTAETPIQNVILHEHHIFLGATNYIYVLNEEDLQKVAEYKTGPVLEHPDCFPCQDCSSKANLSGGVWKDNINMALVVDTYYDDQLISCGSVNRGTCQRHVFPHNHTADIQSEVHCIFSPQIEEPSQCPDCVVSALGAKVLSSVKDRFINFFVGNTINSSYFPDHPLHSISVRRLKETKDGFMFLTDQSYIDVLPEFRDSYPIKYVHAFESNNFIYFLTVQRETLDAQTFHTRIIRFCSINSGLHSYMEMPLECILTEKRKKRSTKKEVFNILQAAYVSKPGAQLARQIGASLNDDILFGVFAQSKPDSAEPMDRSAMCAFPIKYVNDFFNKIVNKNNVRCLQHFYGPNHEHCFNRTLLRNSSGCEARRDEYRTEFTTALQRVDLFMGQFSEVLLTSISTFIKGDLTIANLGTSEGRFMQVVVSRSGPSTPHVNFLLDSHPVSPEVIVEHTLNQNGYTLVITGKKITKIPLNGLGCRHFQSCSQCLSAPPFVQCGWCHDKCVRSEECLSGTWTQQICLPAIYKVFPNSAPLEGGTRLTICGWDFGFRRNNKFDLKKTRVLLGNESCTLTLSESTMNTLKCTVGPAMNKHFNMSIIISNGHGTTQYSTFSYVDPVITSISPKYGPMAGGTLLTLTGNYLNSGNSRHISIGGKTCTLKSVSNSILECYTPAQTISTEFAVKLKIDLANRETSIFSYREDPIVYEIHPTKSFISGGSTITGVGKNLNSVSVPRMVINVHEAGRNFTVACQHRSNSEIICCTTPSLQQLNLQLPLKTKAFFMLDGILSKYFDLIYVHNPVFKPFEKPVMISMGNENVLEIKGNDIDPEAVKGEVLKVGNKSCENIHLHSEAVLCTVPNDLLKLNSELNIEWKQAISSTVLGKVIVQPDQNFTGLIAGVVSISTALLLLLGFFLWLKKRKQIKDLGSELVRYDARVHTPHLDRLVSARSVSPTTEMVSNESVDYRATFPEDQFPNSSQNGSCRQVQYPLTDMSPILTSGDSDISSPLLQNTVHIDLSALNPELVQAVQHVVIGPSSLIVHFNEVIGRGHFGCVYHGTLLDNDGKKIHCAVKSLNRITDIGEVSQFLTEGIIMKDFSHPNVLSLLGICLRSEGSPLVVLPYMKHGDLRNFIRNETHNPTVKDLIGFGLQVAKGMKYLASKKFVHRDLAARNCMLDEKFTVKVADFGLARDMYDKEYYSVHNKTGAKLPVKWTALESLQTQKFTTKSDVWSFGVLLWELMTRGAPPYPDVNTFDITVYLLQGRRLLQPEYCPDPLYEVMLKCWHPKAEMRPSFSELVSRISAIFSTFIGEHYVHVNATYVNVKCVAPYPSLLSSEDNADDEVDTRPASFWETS

The target of test [5] is T5, PKAC-alpha (Homo sapiens, UniProt P17612).
T5 construct: purchased Eurofins DiscoverX KINOMEscan

In test [6] the target is T6, FLT3(D835Y) (Homo sapiens, UniProt P36888, D835Y).
T6 construct: purchased Eurofins DiscoverX KINOMEscan
T6 sequence (P36888 27-993 D835Y): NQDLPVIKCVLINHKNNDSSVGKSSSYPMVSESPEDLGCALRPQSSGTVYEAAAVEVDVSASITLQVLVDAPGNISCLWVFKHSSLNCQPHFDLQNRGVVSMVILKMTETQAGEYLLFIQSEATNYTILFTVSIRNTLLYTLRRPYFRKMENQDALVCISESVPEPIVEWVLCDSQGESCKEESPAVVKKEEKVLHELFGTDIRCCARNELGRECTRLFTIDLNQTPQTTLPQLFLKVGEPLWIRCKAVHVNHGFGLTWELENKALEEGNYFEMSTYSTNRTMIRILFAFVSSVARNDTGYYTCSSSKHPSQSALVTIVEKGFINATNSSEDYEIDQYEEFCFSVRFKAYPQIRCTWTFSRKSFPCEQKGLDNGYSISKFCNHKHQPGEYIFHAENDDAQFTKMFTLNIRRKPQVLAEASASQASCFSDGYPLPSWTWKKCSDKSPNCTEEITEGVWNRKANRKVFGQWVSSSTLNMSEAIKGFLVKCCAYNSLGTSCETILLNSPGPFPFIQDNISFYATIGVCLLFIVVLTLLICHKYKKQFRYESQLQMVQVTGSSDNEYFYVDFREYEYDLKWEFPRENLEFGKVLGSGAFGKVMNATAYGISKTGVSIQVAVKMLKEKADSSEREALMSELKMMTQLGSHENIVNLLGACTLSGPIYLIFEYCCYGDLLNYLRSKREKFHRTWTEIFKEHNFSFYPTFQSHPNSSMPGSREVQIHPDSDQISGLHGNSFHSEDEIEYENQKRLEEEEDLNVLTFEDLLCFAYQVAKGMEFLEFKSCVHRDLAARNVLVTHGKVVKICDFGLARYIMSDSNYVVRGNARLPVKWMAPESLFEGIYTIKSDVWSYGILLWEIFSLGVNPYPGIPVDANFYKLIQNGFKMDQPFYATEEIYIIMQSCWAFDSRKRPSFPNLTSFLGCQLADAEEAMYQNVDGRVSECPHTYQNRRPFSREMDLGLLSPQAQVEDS

The target of test [7] is T7, YSK4 (Homo sapiens, UniProt Q56UN5).
T7 construct: purchased Eurofins DiscoverX KINOMEscan
T7 sequence (Q56UN5 1-1328): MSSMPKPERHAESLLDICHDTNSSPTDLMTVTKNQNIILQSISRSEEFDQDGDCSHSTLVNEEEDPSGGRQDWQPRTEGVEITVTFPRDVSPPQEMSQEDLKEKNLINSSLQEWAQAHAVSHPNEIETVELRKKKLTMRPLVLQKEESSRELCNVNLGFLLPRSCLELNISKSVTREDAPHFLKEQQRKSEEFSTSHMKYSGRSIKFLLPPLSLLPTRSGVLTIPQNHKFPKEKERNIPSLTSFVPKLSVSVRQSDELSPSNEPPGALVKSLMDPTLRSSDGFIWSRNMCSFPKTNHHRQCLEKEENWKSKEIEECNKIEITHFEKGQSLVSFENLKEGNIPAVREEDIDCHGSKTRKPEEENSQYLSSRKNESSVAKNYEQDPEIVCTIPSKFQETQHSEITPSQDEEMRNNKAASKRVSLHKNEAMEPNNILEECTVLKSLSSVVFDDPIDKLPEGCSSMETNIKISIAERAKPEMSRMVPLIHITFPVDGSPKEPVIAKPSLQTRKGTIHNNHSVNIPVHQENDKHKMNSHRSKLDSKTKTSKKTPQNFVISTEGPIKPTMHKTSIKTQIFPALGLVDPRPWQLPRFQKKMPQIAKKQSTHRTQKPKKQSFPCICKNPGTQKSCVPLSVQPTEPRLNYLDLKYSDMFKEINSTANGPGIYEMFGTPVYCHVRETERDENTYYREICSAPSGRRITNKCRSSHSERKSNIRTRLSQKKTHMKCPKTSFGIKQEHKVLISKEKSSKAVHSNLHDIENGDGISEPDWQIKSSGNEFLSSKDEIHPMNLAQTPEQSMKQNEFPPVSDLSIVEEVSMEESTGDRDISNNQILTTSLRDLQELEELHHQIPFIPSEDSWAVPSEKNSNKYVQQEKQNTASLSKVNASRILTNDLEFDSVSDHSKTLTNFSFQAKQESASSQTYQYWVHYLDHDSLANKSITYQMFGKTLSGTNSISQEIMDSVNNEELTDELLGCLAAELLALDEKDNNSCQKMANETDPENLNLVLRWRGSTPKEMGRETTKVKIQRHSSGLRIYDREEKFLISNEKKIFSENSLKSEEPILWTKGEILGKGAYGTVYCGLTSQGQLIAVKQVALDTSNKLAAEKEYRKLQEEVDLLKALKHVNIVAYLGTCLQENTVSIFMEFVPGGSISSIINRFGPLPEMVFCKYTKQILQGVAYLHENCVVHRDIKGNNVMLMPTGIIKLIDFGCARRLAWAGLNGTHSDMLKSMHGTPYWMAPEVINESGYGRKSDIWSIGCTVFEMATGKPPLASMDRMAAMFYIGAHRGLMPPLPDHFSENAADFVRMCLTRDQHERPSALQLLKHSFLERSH

Test [8] has as its target T8, AKT1 (Homo sapiens, UniProt P31749).
T8 construct: purchased Eurofins DiscoverX KINOMEscan

T8 sequence (P31749 whole entry): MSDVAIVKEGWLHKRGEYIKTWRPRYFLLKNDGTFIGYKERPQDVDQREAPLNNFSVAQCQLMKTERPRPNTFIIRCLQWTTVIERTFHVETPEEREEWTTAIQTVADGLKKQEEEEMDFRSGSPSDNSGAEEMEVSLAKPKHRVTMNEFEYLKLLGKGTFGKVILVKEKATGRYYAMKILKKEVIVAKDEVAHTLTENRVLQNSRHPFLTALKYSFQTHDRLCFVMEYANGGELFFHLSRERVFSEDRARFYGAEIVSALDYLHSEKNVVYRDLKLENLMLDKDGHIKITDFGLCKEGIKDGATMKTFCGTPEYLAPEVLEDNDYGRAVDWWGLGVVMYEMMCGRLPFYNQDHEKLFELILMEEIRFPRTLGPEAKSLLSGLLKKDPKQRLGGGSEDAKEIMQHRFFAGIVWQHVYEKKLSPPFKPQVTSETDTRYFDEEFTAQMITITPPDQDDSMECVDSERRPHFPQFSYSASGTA
T2 sequence (P19784 whole entry): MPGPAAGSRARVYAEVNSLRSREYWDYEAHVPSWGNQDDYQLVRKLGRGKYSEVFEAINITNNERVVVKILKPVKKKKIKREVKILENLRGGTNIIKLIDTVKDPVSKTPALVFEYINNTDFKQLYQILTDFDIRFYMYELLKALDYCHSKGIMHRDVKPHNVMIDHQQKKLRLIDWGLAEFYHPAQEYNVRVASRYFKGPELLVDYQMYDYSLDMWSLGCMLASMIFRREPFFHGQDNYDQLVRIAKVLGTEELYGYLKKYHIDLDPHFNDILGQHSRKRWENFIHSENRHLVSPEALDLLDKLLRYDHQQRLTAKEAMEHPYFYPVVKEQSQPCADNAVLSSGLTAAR
T1 sequence (Q16288 32-839): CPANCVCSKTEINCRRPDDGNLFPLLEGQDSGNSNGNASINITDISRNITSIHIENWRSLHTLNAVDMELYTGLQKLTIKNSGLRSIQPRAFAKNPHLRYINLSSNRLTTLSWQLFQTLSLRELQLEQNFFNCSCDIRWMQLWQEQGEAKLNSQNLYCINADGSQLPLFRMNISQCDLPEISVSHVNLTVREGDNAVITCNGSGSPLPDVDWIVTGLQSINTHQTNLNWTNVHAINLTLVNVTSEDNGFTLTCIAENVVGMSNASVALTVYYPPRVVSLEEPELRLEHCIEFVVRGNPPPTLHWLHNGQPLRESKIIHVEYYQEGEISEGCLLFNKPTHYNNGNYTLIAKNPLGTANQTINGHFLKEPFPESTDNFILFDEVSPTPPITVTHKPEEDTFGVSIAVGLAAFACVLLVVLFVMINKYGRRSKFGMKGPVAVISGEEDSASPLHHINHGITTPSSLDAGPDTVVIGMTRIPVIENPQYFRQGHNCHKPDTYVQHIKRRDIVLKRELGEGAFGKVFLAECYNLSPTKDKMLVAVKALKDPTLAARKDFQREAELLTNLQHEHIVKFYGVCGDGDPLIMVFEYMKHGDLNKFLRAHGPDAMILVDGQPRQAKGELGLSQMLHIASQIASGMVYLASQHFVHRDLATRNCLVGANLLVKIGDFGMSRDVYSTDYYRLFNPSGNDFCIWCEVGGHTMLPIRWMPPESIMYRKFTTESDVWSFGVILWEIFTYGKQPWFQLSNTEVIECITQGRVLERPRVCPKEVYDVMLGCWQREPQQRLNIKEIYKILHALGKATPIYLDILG

For `Clc1cc(NCC2CC2)c2ncc(-c3ccc4[nH]ncc4c3)n2n1` [compound 2, 6-Chloro-N-(cyclopropylmethyl)-3-(1H-indazol-5-yl)imidazo[1,2-b]pyridazin-8-amine], the remaining binding at 1 µM was found to be 87% in test [1]; 94% in test [2]; 0.45% in test [3]; 89% in test [4]; 68% in test [5]; 10% in test [6]. The remaining binding at 1 µM in test [7] stood at 45%; in test [8] it was 98%.
On to `O=C(CN1CCOCC1)N[C@H]1CC[C@H](Nc2cc(Cl)nn3c(-c4ccc5[nH]ncc5c4)cnc23)CC1` [compound 26], for which the remaining binding at 1 µM stood at 100% in test [1]; 100% in test [2]; 0.05% in test [3]; 82% in test [4]; 100% in test [5]; 17% in test [6]. For the same compound, the results for the remaining binding at 1 µM in test [7] and in test [8] were 23% and 100%, respectively.
As for `CN1CCC(CNc2cc(Cl)nn3c(-c4cc5nc(Nc6ccccc6)[nH]c5cc4F)cnc23)CC1` [compound 31, 6-Chloro-3-(6-fluoro-2-(phenylamino)-1H-benzo[d]imidazol-5-yl)-N-((1-methylpiperidin-4-yl)methyl)imidazo[1,2-b]pyridazin-8-amine], the remaining binding at 1 µM in test [1] is 100%; in test [2], 100%; in test [3], 67%; in test [4] it was 98%; in test [5], 94%; in test [6] it was 100%. Also, the remaining binding at 1 µM in test [7] was determined as 77%; in test [8], 100%.
